Source: patent US9994824B2, “Method for promoting hair growth using composition comprising PDGF-D treated adipose-derived stem cells” (INDUSTRY-ACADEMIC COOPERATION FOUNDATION, YONSEI UNIVERSITY, priority 2015, dated 2018)

Key:
ASCs [1] = assay: cell proliferation assay (CCK-8 cell numbers); type: cell-based, human; settings: for proliferation of ASCs increased by PDGF-D, effect of inhibitor: inhibitor treatment of PDGF-D-treated ASCs
Procedure: (§1) Human ASCs were obtained from a subcutaneous fat by liposuction according to a known method (Kim et al. J Dermatol Sci 53:96-102, 2009). ASCs were cultured in an α-MEM medium (Hyclone, Thermo Scientific) with 10% FBS (GIBCO, Invitrogen) and 1% penicillin/streptomycin (GIBCO) at 37° C. in 5% CO2, and cells at 7-9 passages were used. Positive expression of CD44, CD73, CD90, CD105, HLA-1 and PODXL and negative expression of CD34 and CD45 were examined by flow cytometry (Kim et al. Cell Death Dis 4:e588, 2013; Kim et al., Cell Biol Int 38:32-40, 2014), and multipotent differentiation potential for the cells to differentiate into adipocytes, osteocytes and cartilage cells was examined (Song et al. Stem Cells Dev 17:451-461, 2008).
For cell proliferation assay, 7×10^3 of ASCs were seeded on 48-well plates, 24 hours later, a medium was transferred with a 0.2% FBS-containing α-MEM medium, and the following day, cells were treated with PDGF isoforms (10 ng/ml) for 48 hours. Afterward, the medium was removed, the cells were treated with a 10% CCK-8 solution for 2 hours using a CCK-8 assay kit (Dojindo, Japan), and the absorbance was measured at 450 nm, to examine cell numbers.

ASCs [2] = assay: cell migration assay (trans-well); type: cell-based, human; settings: for migration of ASCs increased by PDGF-D, effect of inhibitor: inhibitor treatment of PDGF-D-treated ASCs
Procedure: as §1
Also, for cell migration assay, 2×10^4/well of ASCs were seeded on the upper portion of a trans-well membrane plate (Corning, USA). After 2 hours, PDGF isoforms (10 ng/ml) and an α-MEM medium with 0.2% FBS were introduced to the lower portion of the trans-well membrane plate to culture the PDGF isoforms for 16 to 20 hours. Afterward, cells migrated to the trans-well membrane were fixed with cold ethanol for 20 minutes, and stained with 10% crystal-violet (Sigma, USA) at room temperature for 30 minutes.

mitochondria of ASCs = assay: mitochondrial fission (MitoTracker Red, confocal microscope); type: cell-based, human; settings: PDGF-D-treated ASCs plus inhibitor
Procedure: ASCs were seeded on a round cover glass and treated with PDGF-D (10 ng/ml) for 24 hours. For mitochondrial staining, 500 nM MitoTracker Red (Molecular Probe, USA) was added to an α-MEM medium, and cells were incubated for 30 minutes, and then the morphology of mitochondria and MitoTracker Red fluorescence were examined using a confocal microscope (Carl Zeiss). In addition, for nuclear staining, cells were fixed with 4% paraformaldehyde for 15 minutes, permeabilized with 0.5% PBS-T for 5 minutes, and stained with DAPI (Sigma, USA) at room temperature for 10 minutes.

ROS generation in ASCs = assay: intracellular ROS generation using DCF-DA; type: cell-based, human; settings: PDGF-D-treated ASCs plus inhibitor
Procedure: ROS generation in cells were measured by a method using DCF-DA (Molecular probe, USA) (Kim et al., Stem Cells Dev 21:2212-2221, 2012; Kim et al., Stem Cells Dev 20:1753-1761, 2011), and mitochondrial ROS generation was measured using Mito-Sox (Molecular probe, USA). ASCs were seeded on 60-mm dishes, treated with PDGF-D (10 ng/ml) and 5 μM Mito-Sox and incubated in a dark place for 2 hours, and then flow cytometry was performed.

BCL2A1 = BCL2A1 mRNA expression (PCR array, qPCR); type: cell-based, human; settings: PDGF-D-treated ASCs plus inhibitor
Procedure: (§2) In this example, PDGF-D target genes were examined using a human signaling pathwayfinder RT^2 profiler PCR array (signaling pathway: PAHS-041ZD).
(§3) 2.5×10^5 of ASCs were seeded on 60-mm dishes, cultured in a 0.2% FBS-containing α-MEM medium, and treated with PDGF-D for 4-24 hours. Afterward, total RNA was extracted using an RNA extraction kit (RNeasy, Qiagen), cDNA was synthesized from 500 ng of total RNA by a cDNA synthesis kit (A3500, Promega) using 1,000 U reverse transcriptase and 50 ng/μl oligo(dT) primers. Gene expression was detected by a PCR array kit (Qiagen) according to the manufacturer's instructions, and qPCR was performed on a step one plus real-time PCR system (Applied Biosystems, Invitrogen) using a SYBR Green PCR master mix (Takara Bio, Japan).

SERPINE1 = SERPINE1 mRNA expression (PCR array, qPCR); type: cell-based, human; settings: PDGF-D-treated ASCs plus inhibitor
Procedure: as §2, §3

[3] = system: growth factors VEGFA, FGF1, FGF5, BMP8B, LIF, INHBA, IL11 and HBEGF; assay: growth factor expression (RT2 profiler PCR array of human growth factor, qPCR); type: cell-based
Procedure: Then, the paracrine effect of PDGF families was examined using an RT^2 profiler PCR array of a human growth factor (growth factor pathway: PAHS-041ZA).
The growth factor expression was measured by an RT^2 profiler PCR array (FIG. 9A).

## COc1cc(-n2c(=S)[nH]c3ccccc3c2=O)c(Cl)cc1Cl [Mdivi-1]
ASCs [1]
  proliferation of ASCs increased by PDGF-D, effect of inhibitor: considerably decreased
ASCs [2]
  migration of ASCs increased by PDGF-D, effect of inhibitor: considerably decreased
Mitochondria of ASCs
  mitochondrial fission induced by PDGF-D treatment, effect of inhibitor: decreased

## CC1(C)CC(C(=O)OCCCCCCCCCC[P+](c2ccccc2)(c2ccccc2)c2ccccc2)C(C)(C)N1O (stereo not drawn) [Mito-CP]
ASCs [1]
  proliferation of ASCs increased by PDGF-D, effect of inhibitor: considerably decreased
ASCs [2]
  migration of ASCs increased by PDGF-D, effect of inhibitor: considerably decreased
ROS generation in ASCs
  DCF-DA fluorescence, effect of inhibitor/scavenger: considerably decreased
BCL2A1
  BCL2A1 expression, effect of inhibitor: no influence
SERPINE1
  SERPINE1 expression, effect of inhibitor: considerably decreased

## S=C(S)N1CCCC1 [PDTC]
BCL2A1
  BCL2A1 expression, effect of inhibitor: decreased

## N#CC(=C(/N)Sc1ccccc1N)/C(C#N)=C(\N)Sc1ccccc1N [U0126]
ASCs [1]
  proliferation of ASCs increased by PDGF-D, effect of inhibitor: not influenced
ASCs [2]
  migration of ASCs increased by PDGF-D, effect of inhibitor: not influenced
[3]; 10 μM inhibitor, RT2 profiler PCR array
  expression of a growth factor induced by PDGF-D, effect of inhibitor (PCR array): inhibited
[3]; qPCR
  expression of the growth factor induced by PDGF-D, effect of inhibitor (qPCR): inhibited

## COCCOc1ccc2c(c1)ncn2-c1ccc2cccc(N3CCC(N)CC3)c2n1 [cp673451]
ROS generation in ASCs
  DCF-DA fluorescence, effect of inhibitor/scavenger: considerably decreased
BCL2A1
  BCL2A1 expression, effect of inhibitor: decreased
SERPINE1
  SERPINE1 expression, effect of inhibitor: decreased

B1: PDGF-B: PDGF isoform growth factor protein, purchased from Sigma (protein, UniProt P01127 82-190, looked up)
Platelet-derived growth …: SLGSLTIAEPAMIAECKTRTEVFEISRRLIDRTNANFLVWPPCVEVQRCSGCCNNRNVQCRPTQVQLRPVQVRKIEIVRKKPIFKKATVTLEDHLACKCETVAAARPVT
ASCs [1]; PDGF isoforms 10 ng/ml, 48 hours, 0.2% FBS α-MEM
  cell proliferation (cell numbers): considerably enhanced twice or more
ASCs [2]; PDGF isoforms 10 ng/ml, 16 to 20 hours, 0.2% FBS α-MEM
  cell migration: considerably enhanced twice or more
